Laboratory results reported in PubChem BioAssay AID1259407 (Chemical Carcinogenesis Research Information System (CCRIS), 2018).
Activity calls are given as the source filed them. No rule for the calls is given here.

Test system: CCRIS mutagenicity, Ames/micronucleus/aberration tests
Test: CCRIS mutagenicity studies
[1] = Test System: AMES SALMONELLA TYPHIMURIUM, Strain/Indicator: TA100, Metabolic Activation: NONE, Method: PREINCUBATION
[2] = Test System: AMES SALMONELLA TYPHIMURIUM, Strain/Indicator: TA100, Metabolic Activation: NONE, Method: STANDARD PLATE
[3] = Test System: AMES SALMONELLA TYPHIMURIUM, Strain/Indicator: TA98, Metabolic Activation: RAT, LIVER, S-9, PHENOBARBITAL, Method: STANDARD PLATE
[4] = Test System: AMES SALMONELLA TYPHIMURIUM, Strain/Indicator: TA100, Metabolic Activation: RAT, LIVER, S-9, PHENOBARBITAL, Method: STANDARD PLATE
[5] = Test System: AMES SALMONELLA TYPHIMURIUM, Strain/Indicator: TA98, Metabolic Activation: NONE, Method: STANDARD PLATE

Structure (SMILES): COc1cc(-c2ccc(N)c(OC)c2)ccc1N
- mutagenic call (End Point: IN VITRO CHROMOSOMAL ABERRATIONS, Test System: CHL CELLS, Metabolic Activation: RAT, LIVER, S-9, SODIUM PHENOBARBITAL AND 5,6-BENZOFLAVONE): active; positive (structural changes); precipitation of test chemical observed above 0.6
- mutagenic call (Test System: AMES SALMONELLA TYPHIMURIUM, Strain/Indicator: SV50, Metabolic Activation: NONE, Method: PREINCUBATION (PRIVAL METHOD)): inactive; negative
- mutagenic call (Test System: AMES SALMONELLA TYPHIMURIUM, Strain/Indicator: SV50, Metabolic Activation: RAT, LIVER, S-9, AROCLOR 1254, Method: STANDARD PLATE): inactive; negative
- mutagenic call (Test System: AMES SALMONELLA TYPHIMURIUM, Strain/Indicator: TA98(1,8-DNP6), Metabolic Activation: NONE, Method: STANDARD PLATE): inactive; negative
- mutagenic call (Test System: AMES SALMONELLA TYPHIMURIUM, Strain/Indicator: TA98(1,8-DNP6), Metabolic Activation: S-9, Method: STANDARD PLATE): active; positive
- mutagenic call (Test System: AMES SALMONELLA TYPHIMURIUM, Strain/Indicator: TA98, Metabolic Activation: HAMSTER, LIVER, S-9, AROCLOR 1254, Method: PREINCUBATION): active; positive
- mutagenic call (Test System: AMES SALMONELLA TYPHIMURIUM, Strain/Indicator: TA98, Metabolic Activation: HAMSTER, LIVER, S-9, Method: PREINCUBATION (PRIVAL METHOD)): inactive; negative
- mutagenic call (Test System: AMES SALMONELLA TYPHIMURIUM, Strain/Indicator: TA98, Metabolic Activation: RAT LIVER S-9, AROCLOR 1254, Method: PREINCUBATION): active; positive
- mutagenic call (Test System: AMES SALMONELLA TYPHIMURIUM, Strain/Indicator: TA98, Metabolic Activation: RAT LIVER S-9, PHENOBARBITAL AND BETA-NAPHTHOFLAVONE, Method: PREINCUBATION): active; positive
- mutagenic call (Test System: AMES SALMONELLA TYPHIMURIUM, Strain/Indicator: TA98, Metabolic Activation: RAT, LIVER, S-9, AROCLOR 1254, Method: PREINCUBATION): active; positive
- mutagenic call (Test System: AMES SALMONELLA TYPHIMURIUM, Strain/Indicator: TA98, Metabolic Activation: RAT, LIVER, S-9, AROCLOR 1254, Method: STANDARD PLATE): active; positive
- mutagenic call (Test System: AMES SALMONELLA TYPHIMURIUM, Strain/Indicator: TA98, Metabolic Activation: RAT, LIVER, S-9, PCB, Method: PREINCUBATION): active; positive
- mutagenic call (Test System: AMES SALMONELLA TYPHIMURIUM, Strain/Indicator: TA98, Metabolic Activation: S-9, Method: STANDARD PLATE): active; positive
- mutagenic call (Test System: AMES SALMONELLA TYPHIMURIUM, Strain/Indicator: TA100, Metabolic Activation: HAMSTER, LIVER, S-9, AROCLOR 1254, Method: PREINCUBATION): inactive; negative
- mutagenic call [1]: inactive; negative
- mutagenic call [2]: inactive; negative
- mutagenic call (Test System: AMES SALMONELLA TYPHIMURIUM, Strain/Indicator: TA100, Metabolic Activation: RAT LIVER S-9, AROCLOR 1254, Method: PREINCUBATION): active; positive
- mutagenic call (Test System: AMES SALMONELLA TYPHIMURIUM, Strain/Indicator: TA100, Metabolic Activation: RAT LIVER S-9, PHENOBARBITAL AND BETA-NAPHTHOFLAVONE, Method: PREINCUBATION): inactive; negative
- mutagenic call (Test System: AMES SALMONELLA TYPHIMURIUM, Strain/Indicator: TA100, Metabolic Activation: RAT, LIVER, S-9, AROCLOR 1254, Method: PREINCUBATION): active; positive
- mutagenic call (Test System: AMES SALMONELLA TYPHIMURIUM, Strain/Indicator: TA100, Metabolic Activation: RAT, LIVER, S-9, PCB, Method: PREINCUBATION): active; positive
- mutagenic call (Test System: AMES SALMONELLA TYPHIMURIUM, Strain/Indicator: TA100, Metabolic Activation: S-9, Method: STANDARD PLATE): inactive; negative
- mutagenic call (Test System: AMES SALMONELLA TYPHIMURIUM, Strain/Indicator: TA1535, Metabolic Activation: NONE, Method: PREINCUBATION): inactive; negative
- mutagenic call (Test System: AMES SALMONELLA TYPHIMURIUM, Strain/Indicator: TA1535, Metabolic Activation: RAT, LIVER, S-9, AROCLOR 1254, Method: PREINCUBATION): inactive; negative
- mutagenic call (Test System: AMES SALMONELLA TYPHIMURIUM, Strain/Indicator: TA1535, Metabolic Activation: RAT, LIVER, S-9, AROCLOR 1254, Method: STANDARD PLATE): active; positive
- mutagenic call (Test System: AMES SALMONELLA TYPHIMURIUM, Strain/Indicator: TA1537, Metabolic Activation: HAMSTER, LIVER, S-9, AROCLOR 1254, Method: PREINCUBATION): inactive; negative
- mutagenic call (Test System: AMES SALMONELLA TYPHIMURIUM, Strain/Indicator: TA1537, Metabolic Activation: NONE, Method: PREINCUBATION): inactive; negative
- mutagenic call (Test System: AMES SALMONELLA TYPHIMURIUM, Strain/Indicator: TA1537, Metabolic Activation: RAT LIVER S-9, PHENOBARBITAL AND BETA-NAPHTHOFLAVONE, Method: PREINCUBATION): inactive; negative
- mutagenic call (Test System: AMES SALMONELLA TYPHIMURIUM, Strain/Indicator: TA1537, Metabolic Activation: RAT, LIVER, S-9, AROCLOR 1254, Method: PREINCUBATION): inactive; negative
- mutagenic call (Test System: AMES SALMONELLA TYPHIMURIUM, Strain/Indicator: TA1538, Metabolic Activation: HAMSTER, LIVER, S-9, Method: STANDARD PLATE): active; positive
- mutagenic call (Test System: AMES SALMONELLA TYPHIMURIUM, Strain/Indicator: TA1538, Metabolic Activation: RAT, LIVER, S-9, AROCLOR 1254, Method: STANDARD PLATE): active; positive
- mutagenic call (Test System: AMES SALMONELLA TYPHIMURIUM, Strain/Indicator: TA1538, Metabolic Activation: RAT, LIVER, S-9, PHENOBARBITAL, Method: STANDARD PLATE): active; positive
- mutagenic call (Test System: Ames Salmonella typhimurium, Strain/Indicator: TA98, Metabolic Activation: Rat, Liver, S-9, Sodium phenobarbitone, Method: Preincubation): active; positive, test conducted under both aerobic and anaerobic conditions.
- mutagenic call (Test System: Ames Salmonella typhimurium, Strain/Indicator: TA102, Metabolic Activation: None, Method: Preincubation): inactive; negative
- mutagenic call (Test System: Ames Salmonella typhimurium, Strain/Indicator: TA102, Metabolic Activation: Rat, Liver, S-9, Aroclor 1254, 4%, Method: Preincubation): active; positive
- mutagenic call (Test System: Ames Salmonella typhimurium, Strain/Indicator: TA1538, Metabolic Activation: Rat, Liver, S-9, Sodium phenobarbitone, Method: Preincubation): active; positive, test conducted under both aerobic and anaerobic conditions.
- mutagenic call (Test System: MOUSE LYMPHOMA, Strain/Indicator: L5178Y (TK+/TK-), Metabolic Activation: NONE, Method: SUSPENSION/PLATE): active; positive
- mutagenic call (Test System: MOUSE LYMPHOMA, Strain/Indicator: L5178Y (TK+/TK-), Metabolic Activation: RAT, LIVER, S-9, AROCLOR 1254, Method: SUSPENSION/PLATE): active; positive
- mutagenic call (Test System: UDS HUMAN CELLS, Strain/Indicator: THY INCORP (NON-S-PHASE), Metabolic Activation: RAT, LIVER, S-9, PHENOBARBITAL, Method: LIQUID SCINTILLATION COUNTING): active; positive

Structure (SMILES): O=c1c2c(O)cccc2oc2c3c(cc(O)c12)O[C@H]1OCC[C@@H]31
- mutagenic call [3]: inactive; negative
- mutagenic call [4]: inactive; negative

Structure (SMILES): O=CC1C=COC=C1
- mutagenic call [5]: inactive; negative
- mutagenic call [3]: inactive; negative
- mutagenic call [2]: inactive; negative
- mutagenic call [4]: inactive; negative
- mutagenic call (Test System: AMES SALMONELLA TYPHIMURIUM, Strain/Indicator: TM677/8-AZAGUANINE, Metabolic Activation: NONE, Method: STANDARD PLATE): inactive; negative

Structure (SMILES): O=[N+]([O-])c1ccc2[nH]ccc2c1
- mutagenic call [5]: active; positive

Structure (SMILES): O=C(Cl)c1cccc(Cl)c1
- mutagenic call (Test System: AMES SALMONELLA TYPHIMURIUM, Strain/Indicator: TA98, Metabolic Activation: NONE, Method: PREINCUBATION): inactive; negative
- mutagenic call (Test System: AMES SALMONELLA TYPHIMURIUM, Strain/Indicator: TA98, Metabolic Activation: RAT LIVER S-9, PCB, Method: PREINCUBATION): active; positive
- mutagenic call [1]: inactive; negative
- mutagenic call (Test System: AMES SALMONELLA TYPHIMURIUM, Strain/Indicator: TA100, Metabolic Activation: RAT LIVER S-9, PCB, Method: PREINCUBATION): active; positive
- mutagenic call (Test System: AMES SALMONELLA TYPHIMURIUM, Strain/Indicator: TA104, Metabolic Activation: NONE, Method: PREINCUBATION): inactive; negative
- mutagenic call (Test System: AMES SALMONELLA TYPHIMURIUM, Strain/Indicator: TA104, Metabolic Activation: RAT LIVER S-9, PCB, Method: PREINCUBATION): active; positive
- mutagenic call (Test System: E.COLI, Strain/Indicator: WP2 UVRA, Metabolic Activation: NONE, Method: PREINCUBATION): inactive; negative
- mutagenic call (Test System: E.COLI, Strain/Indicator: WP2 UVRA, Metabolic Activation: RAT LIVER S-9, PCB, Method: PREINCUBATION): active; positive

Structure (SMILES): O=C1C=C2c3cc4ccccc4cc3-c3cccc(c32)C1=O
- mutagenic call (Test System: AMES SALMONELLA TYPHIMURIUM, Strain/Indicator: TA100, Metabolic Activation: RAT, LIVER, S-9, AROCLOR 1254, Method: STANDARD PLATE): active; positive
